{"source": "patent US9989543B2", "about": "“Composition, device, and method for detecting olmesartan and improving compliance in treating hypertension” (Autotelic LLC, priority 2016, dated 2018)", "key": {"[1]": {"experiment": "Olmesartan blood concentration/AUC after 7-day versus single-day dosing", "type": "in vivo, Korean healthy males", "details": "for % Reduction: Compliance-7X vs Non-Compliance-1X", "experimental": "Drug exposure as AUC was studied among Korean healthy males aged between 20 and 50 years in two clinical studies: (1) taking drug regularly for 7 days (subjects were administered either 1 tablet of 40 mg olmesartan medoxomil, 1 tablet of 20 mg rosuvastatin calcium, or 1 tablet each of both agents orally every 24 hours for 7 days) and (2) taking drug only one day (58 subjects divided into 2 cohorts and treated over 2 periods; one tablet of ST-101 (FDC olmesartan and rosuvastatin) tablet of 40 mg olmesartan medoxomil/20 mg rosuvastatin calcium was administered once orally as the test drug, or 1 tablet each of 40 mg olmesartan medoxomil and 20 mg rosuvastatin calcium was co-administered once orally as the comparator). Pharmacokinetic analyses were performed. For PK analyses, blood samples were collected at 0 (pre-dose), 0.5, 2, 2.5, 3, 4, 5, 6, 7, 8, 10, 12, 16, 24, and 48 hr after dosing of olmesartan either as FDC or as single agent. The results are graphically illustrated in FIG. 1. FIG. 1 compares olmesartan AUC (area-under-the-curve) for subjects taking olmesartan regularly for 7 days (Multiple Dosing ×7, solid circles) and for subjects taking olmesartan only 1 day (Single Dosing ×1, open circles): mean+/−95% confidence interval (CI) for subjects taking olmesartan regularly for 7 days. […] The differences between compliance and non-compliance across a 24 hr period were determined (see Table 1). The % reduction in blood concentration can be used to determine if the patient is missing his/her medication. […] There is about 40 ng/mL remaining at 24 hr, which accumulated to about 60 ng/mL following consistently medication for 7 days. The comparison between full compliance for 7 days versus noncompliance is tabulated below."}, "[2]": {"details": "highest dose, olmesartan at 40 mg/day; cited from earlier work"}, "[3]": {"experiment": "Olmesartan blood concentration/AUC after 7-day versus single-day dosing", "type": "in vivo, Korean healthy males"}}, "note": "Like-named read-outs stand apart in the source and are kept apart here."}
{"compound": "CCCc1nc(C(C)(C)O)c(C(=O)O)n1Cc1ccc(-c2ccccc2-c2nnn[nH]2)cc1", "note": "[olmesartan]", "values": [{"measurement": "% Reduction", "setting": "[1]; Time 0 hrs", "result": "Infinity"}, {"measurement": "% Reduction", "setting": "[1]; Time 1 hrs", "result": 26.84, "unit": "%"}, {"measurement": "% Reduction", "setting": "[1]; Time 2 hrs", "result": 12.43, "unit": "%"}, {"measurement": "% Reduction", "setting": "[1]; Time 2.5 hrs", "result": 13.33, "unit": "%"}, {"measurement": "% Reduction", "setting": "[1]; Time 3 hrs", "result": 19.97, "unit": "%"}, {"measurement": "% Reduction", "setting": "[1]; Time 4 hrs", "result": 19.85, "unit": "%"}, {"measurement": "% Reduction", "setting": "[1]; Time 5 hrs", "result": 15.71, "unit": "%"}, {"measurement": "% Reduction", "setting": "[1]; Time 6 hrs", "result": 20.17, "unit": "%"}, {"measurement": "% Reduction", "setting": "[1]; Time 8 hrs", "result": 24.95, "unit": "%"}, {"measurement": "% Reduction", "setting": "[1]; Time 10 hrs", "result": 30.40, "unit": "%"}, {"measurement": "% Reduction", "setting": "[1]; Time 12 hrs", "result": 31.90, "unit": "%"}, {"measurement": "% Reduction", "setting": "[1]; Time 16 hrs", "result": 40.22, "unit": "%"}, {"measurement": "% Reduction", "setting": "[1]; Time 24 hrs", "result": 61.33, "unit": "%"}, {"measurement": "concentration at 24 h", "setting": "[1]; male, human, blood, oral, 40 mg, 24 hr, following consistently medication for 7 days, read-out: blood concentration remaining at 24 hr, accumulated", "result": "~60", "unit": "ng/mL"}, {"measurement": "concentration at 0 h", "setting": "[1]; male, human, blood, oral, 40 mg, Time 0 hrs, dosing every 24 hours for 7 days, read-out: Blood concentration (ng/mL)/Compliance-7X", "result": 54.1, "unit": "ng/mL"}, {"measurement": "concentration at 1.5 h", "setting": "[1]; male, human, blood, oral, 40 mg, dosing every 24 hours for 7 days, read-out: Blood concentration (ng/mL)/Compliance-7X", "result": 1060, "unit": "ng/mL"}, {"measurement": "concentration at 1.5 h", "setting": "[1]; male, human, blood, oral, 40 mg, drug taken only one day, read-out: Blood concentration (ng/mL)/Non-Compliance-1X", "result": 932, "unit": "ng/mL"}, {"measurement": "concentration at 2 h", "setting": "[1]; male, human, blood, oral, 40 mg, Time 2 hrs, dosing every 24 hours for 7 days, read-out: Blood concentration (ng/mL)/Compliance-7X", "result": 1130, "unit": "ng/mL"}, {"measurement": "concentration at 2.5 h", "setting": "[1]; male, human, blood, oral, 40 mg, Time 2.5 hrs, dosing every 24 hours for 7 days, read-out: Blood concentration (ng/mL)/Compliance-7X", "result": 1110, "unit": "ng/mL"}, {"measurement": "concentration at 3 h", "setting": "[1]; male, human, blood, oral, 40 mg, Time 3 hrs, dosing every 24 hours for 7 days, read-out: Blood concentration (ng/mL)/Compliance-7X", "result": 1090, "unit": "ng/mL"}, {"measurement": "concentration at 4 h", "setting": "[1]; male, human, blood, oral, 40 mg, Time 4 hrs, dosing every 24 hours for 7 days, read-out: Blood concentration (ng/mL)/Compliance-7X", "result": 911, "unit": "ng/mL"}, {"measurement": "concentration at 5 h", "setting": "[1]; male, human, blood, oral, 40 mg, Time 5 hrs, dosing every 24 hours for 7 days, read-out: Blood concentration (ng/mL)/Compliance-7X", "result": 714, "unit": "ng/mL"}, {"measurement": "concentration at 6 h", "setting": "[1]; male, human, blood, oral, 40 mg, Time 6 hrs, dosing every 24 hours for 7 days, read-out: Blood concentration (ng/mL)/Compliance-7X", "result": 543, "unit": "ng/mL"}, {"measurement": "concentration at 8 h", "setting": "[1]; male, human, blood, oral, 40 mg, Time 8 hrs, dosing every 24 hours for 7 days, read-out: Blood concentration (ng/mL)/Compliance-7X", "result": 361, "unit": "ng/mL"}, {"measurement": "concentration at 10 h", "setting": "[1]; male, human, blood, oral, 40 mg, Time 10 hrs, dosing every 24 hours for 7 days, read-out: Blood concentration (ng/mL)/Compliance-7X", "result": 263, "unit": "ng/mL"}, {"measurement": "concentration at 12 h", "setting": "[1]; male, human, blood, oral, 40 mg, Time 12 hrs, dosing every 24 hours for 7 days, read-out: Blood concentration (ng/mL)/Compliance-7X", "result": 193, "unit": "ng/mL"}, {"measurement": "concentration at 16 h", "setting": "[1]; male, human, blood, oral, 40 mg, Time 16 hrs, dosing every 24 hours for 7 days, read-out: Blood concentration (ng/mL)/Compliance-7X", "result": 123, "unit": "ng/mL"}, {"measurement": "concentration at 24 h", "setting": "[1]; male, human, blood, oral, 40 mg, Time 24 hrs, dosing every 24 hours for 7 days, read-out: Blood concentration (ng/mL)/Compliance-7X", "result": 66.2, "unit": "ng/mL"}, {"measurement": "concentration at 24 h", "setting": "[1]; male, human, blood, oral, 24 hr, before accumulation, read-out: blood concentration remaining at 24 hr", "result": "~40", "unit": "ng/mL"}, {"measurement": "concentration at 0 h", "setting": "[1]; male, human, blood, oral, Time 0 hrs, drug taken only one day, read-out: Blood concentration (ng/mL)/Non-Compliance-1X", "result": 0, "unit": "ng/mL"}, {"measurement": "concentration at 1 h", "setting": "[1]; male, human, blood, oral, Time 1 hrs, drug taken only one day, read-out: Blood concentration (ng/mL)/Non-Compliance-1X", "result": 677, "unit": "ng/mL"}, {"measurement": "concentration at 2 h", "setting": "[1]; male, human, blood, oral, Time 2 hrs, drug taken only one day, read-out: Blood concentration (ng/mL)/Non-Compliance-1X", "result": 1000, "unit": "ng/mL"}, {"measurement": "concentration at 2.5 h", "setting": "[1]; male, human, blood, oral, Time 2.5 hrs, drug taken only one day, read-out: Blood concentration (ng/mL)/Non-Compliance-1X", "result": 976, "unit": "ng/mL"}, {"measurement": "concentration at 3 h", "setting": "[1]; male, human, blood, oral, Time 3 hrs, drug taken only one day, read-out: Blood concentration (ng/mL)/Non-Compliance-1X", "result": 912, "unit": "ng/mL"}, {"measurement": "concentration at 4 h", "setting": "[1]; male, human, blood, oral, Time 4 hrs, drug taken only one day, read-out: Blood concentration (ng/mL)/Non-Compliance-1X", "result": 760, "unit": "ng/mL"}, {"measurement": "concentration at 5 h", "setting": "[1]; male, human, blood, oral, Time 5 hrs, drug taken only one day, read-out: Blood concentration (ng/mL)/Non-Compliance-1X", "result": 617, "unit": "ng/mL"}, {"measurement": "concentration at 6 h", "setting": "[1]; male, human, blood, oral, Time 6 hrs, drug taken only one day, read-out: Blood concentration (ng/mL)/Non-Compliance-1X", "result": 452, "unit": "ng/mL"}, {"measurement": "concentration at 8 h", "setting": "[1]; male, human, blood, oral, Time 8 hrs, drug taken only one day, read-out: Blood concentration (ng/mL)/Non-Compliance-1X", "result": 289, "unit": "ng/mL"}, {"measurement": "concentration at 10 h", "setting": "[1]; male, human, blood, oral, Time 10 hrs, drug taken only one day, read-out: Blood concentration (ng/mL)/Non-Compliance-1X", "result": 202, "unit": "ng/mL"}, {"measurement": "concentration at 12 h", "setting": "[1]; male, human, blood, oral, Time 12 hrs, drug taken only one day, read-out: Blood concentration (ng/mL)/Non-Compliance-1X", "result": 146, "unit": "ng/mL"}, {"measurement": "concentration at 16 h", "setting": "[1]; male, human, blood, oral, Time 16 hrs, drug taken only one day, read-out: Blood concentration (ng/mL)/Non-Compliance-1X", "result": 87.9, "unit": "ng/mL"}, {"measurement": "concentration at 24 h", "setting": "[1]; male, human, blood, oral, Time 24 hrs, drug taken only one day, read-out: Blood concentration (ng/mL)/Non-Compliance-1X", "result": 41.1, "unit": "ng/mL"}, {"measurement": "AUC", "setting": "[1]; male, human, blood, oral, population of subjects receiving olmesartan at 40 mg/day, daily administration, read-out: median AUC (target AUC)", "result": "~7000", "unit": "ng·h/mL"}, {"measurement": "clearance", "setting": "[1]; much of the drug gone from the system at 48 hr", "result": "rapid clearance"}, {"measurement": "subjects achieving target blood pressure reduction", "setting": "[2]", "result": "about 50%"}, {"measurement": "% Reduction", "setting": "[3]; Time 1.5 hrs, Compliance-7X vs Non-Compliance-1X", "result": 14.15, "unit": "%"}, {"measurement": "concentration at 1 h", "setting": "[3]; male, human, blood, oral, 40 mg, Time 1 hrs, dosing every 24 hours for 7 days, read-out: Blood concentration (ng/mL)/Compliance-7X", "result": 858, "unit": "ng/mL"}]}
